Reference: ChEMBL document CHEMBL1139151, “Minor groove binder antibody conjugates employing a water soluble beta-glucuronide linker” (Bioorg Med Chem Lett, 2007)

How the values were obtained:
Format in all cases: functional, cell-based
[1] = test system: CAKI-1; experiment: Cytotoxicity against CD70 positive Caki1 cells assessed as cell viability after 96 hrs; details: Homo sapiens, CAKI-1, 96 h
[2] = test system: L-428; experiment: Cytotoxicity against CD30 positive and CD70 negative L428 cells assessed as cell viability after 96 hrs; details: Homo sapiens, L-428, 96 h
[3] = Cytotoxicity against CD30 positive Karpas 299 cells assessed as cell viability after 96 hrs; details: Homo sapiens, KARPAS-299, 96 h
[4] = Cytotoxicity against CD30 positive L540 Cy cells assessed as cell viability after 96 hrs; details: Homo sapiens, L540cy

## COc1ccc(/C=C/C(=O)N2CC(CCl)c3c2cc(N)c2ccccc32)cc1 (centres undefined)
[1]
  IC50: 0.7 nM
[2]
  IC50: 0.1 nM
[3]
  IC50: 1.2 nM
[4]
  IC50: 0.5 nM
